Laboratory results from PubChem BioAssay AID1963862 (Molecular Pharmacology Branch, DTP, NCI, 2024).

Test system: KRAS patient-derived spheroids with HUVEC/MSC, viability
Test: Anticancer human tumor 941728-121-R-J1-PDC patient-derived lung adenocarcinoma cell line growth inhibition [KRAS2]
Conditions: for IC50: curve of first compound; for viability, T/C: stronger effect = lower value
Outline: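 KRAS-mutant tumor cells were grown as spheroids with HUVEC endothelial cells and human MSCs as stroma. Targeted agents were tested alone and with KRAS pathway inhibitors. Doses started at or near clinical Cmax, or 10 microM, descending half-log.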

[1] = second compound 0.0316 µM, first compound 0.0316 µM
[2] = second compound 0.0316 µM, first compound 0.1 µM
[3] = second compound 0.0316 µM, first compound 0.316 µM
[4] = second compound 0.0316 µM, first compound 1 µM
[5] = second compound 0.0316 µM, first compound 3.16 µM
[6] = second compound 0.0316 µM, first compound 10 µM
[7] = second compound 0.1 µM, first compound 0.0316 µM
[8] = second compound 0.1 µM, first compound 0.1 µM
[9] = second compound 0.1 µM, first compound 0.316 µM
[10] = second compound 0.1 µM, first compound 1 µM
[11] = second compound 0.1 µM, first compound 3.16 µM
[12] = second compound 0.1 µM, first compound 10 µM
[13] = second compound 0.316 µM, first compound 0.0316 µM
[14] = second compound 0.316 µM, first compound 0.1 µM
[15] = second compound 0.316 µM, first compound 0.316 µM
[16] = second compound 0.316 µM, first compound 1 µM
[17] = second compound 0.316 µM, first compound 3.16 µM
[18] = second compound 0.316 µM, first compound 10 µM
[19] = second compound 1 µM, first compound 0.0316 µM
[20] = second compound 1 µM, first compound 0.1 µM
[21] = second compound 1 µM, first compound 0.316 µM
[22] = second compound 1 µM, first compound 1 µM
[23] = second compound 1 µM, first compound 3.16 µM
[24] = second compound 1 µM, first compound 10 µM
[25] = second compound 3.16 µM, first compound 0.0316 µM
[26] = second compound 3.16 µM, first compound 0.1 µM
[27] = second compound 3.16 µM, first compound 0.316 µM
[28] = second compound 3.16 µM, first compound 1 µM
[29] = second compound 3.16 µM, first compound 3.16 µM
[30] = second compound 3.16 µM, first compound 10 µM
[31] = second compound 0.0316 µM, first compound 0.01 µM
[32] = second compound 0.1 µM, first compound 0.01 µM
[33] = second compound 0.316 µM, first compound 0.01 µM
[34] = second compound 1 µM, first compound 0.01 µM
[35] = second compound 3.16 µM, first compound 0.01 µM
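Note: spheroids exposed to agents for seven days before readout.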

Structure (SMILES) | IC50 (second compound 0.0316 µM) [µM] | IC50 (second compound 0.1 µM) [µM] | IC50 (second compound 0.316 µM) [µM] | IC50 (second compound 1 µM) [µM] | IC50 (second compound 3.16 µM) [µM] | viability, T/C [1] [%] | viability, T/C [2] [%] | viability, T/C [3] [%] | viability, T/C [4] [%] | viability, T/C [7] [%] | viability, T/C [8] [%] | viability, T/C [9] [%] | viability, T/C [10] [%] | viability, T/C [13] [%] | viability, T/C [14] [%] | viability, T/C [15] [%] | viability, T/C [16] [%] | viability, T/C [19] [%] | viability, T/C [20] [%] | viability, T/C [21] [%] | other results
CC(C)NCC(C(=O)N1CCN(c2ncnc3c2C(C)CC3O)CC1)c1ccc(Cl)cc1 (stereo not given) + C=CC(=O)N1CCN(c2nc(OCC3CCCN3C)nc3c2CCN(c2cccc4cccc(C)c24)C3)CC1CC#N | < 0.0316 | < 0.0316 | < 0.0316 | < 0.0316 | < 0.0316 | 29.1 | 29.5 | 23.4 | 23.5 | 27.3 | 30 | 22.8 | 19.5 | 26.8 | 26.6 | 26.5 | 18.9 | 27.4 | 24.1 | 18.9 | viability, T/C [5]: 18%; viability, T/C [6]: 7.87%; viability, T/C [11]: 14.5%; viability, T/C [12]: 7.59%; viability, T/C [17]: 15.7%; viability, T/C [18]: 8.89%; viability, T/C [22]: 15%; viability, T/C [23]: 12.5%; viability, T/C [24]: 4.68%; viability, T/C [25]: 0.13%; viability, T/C [26]: 0.12%; viability, T/C [27]: 0.12%; viability, T/C [28]: 0.15%; viability, T/C [29]: 0.18%; viability, T/C [30]: 0.25%
CC1COCCN1c1cc(-c2ccnn2C)c2ccnc(-c3ccn[nH]3)c2n1 (stereo not given) + C=CC(=O)N1CCN(c2nc(OCC3CCCN3C)nc3c2CCN(c2cccc4cccc(C)c24)C3)CC1CC#N | < 0.01 | < 0.01 | < 0.01 | < 0.01 | < 0.01 | 24.8 | 19.9 | 19.6 | 16.9 | 28.3 | 19.9 | 18.5 | 16.6 | 22.7 | 25.9 | 17.6 | 16.1 | 24.2 | 19 | 18.1 | viability, T/C [31]: 26.5%; viability, T/C [5]: 14.6%; viability, T/C [32]: 26.5%; viability, T/C [11]: 13.3%; viability, T/C [33]: 23%; viability, T/C [17]: 12.8%; viability, T/C [34]: 22.9%; viability, T/C [22]: 18.9%; viability, T/C [23]: 15.4%; viability, T/C [35]: 2.14%; viability, T/C [25]: 10.7%; viability, T/C [26]: 2.17%; viability, T/C [27]: 1.73%; viability, T/C [28]: 6.37%; viability, T/C [29]: 6%
CC1OCC2(CCN(c3cnc(Sc4ccnc(N)c4Cl)c(N)n3)CC2)C1N (stereo not given) + C=CC(=O)N1CCN(c2nc(OCC3CCCN3C)nc3c2CCN(c2cccc4cccc(C)c24)C3)CC1CC#N | < 0.0316 | < 0.0316 | < 0.0316 | < 0.0316 | < 0.0316 | 32.3 | 28.9 | 25.4 | 26.4 | 31.4 | 28.9 | 25.6 | 26.3 | 32.8 | 30.8 | 28 | 26.9 | 32.8 | 34.8 | 32.7 | viability, T/C [5]: 23.6%; viability, T/C [6]: 18.4%; viability, T/C [11]: 25.4%; viability, T/C [12]: 20.6%; viability, T/C [17]: 25.1%; viability, T/C [18]: 23.7%; viability, T/C [22]: 28.2%; viability, T/C [23]: 29.1%; viability, T/C [24]: 28.4%; viability, T/C [25]: 4.61%; viability, T/C [26]: 10.1%; viability, T/C [27]: 4.45%; viability, T/C [28]: 4.43%; viability, T/C [29]: 4.99%; viability, T/C [30]: 9.3%
CCN1CCN(Cc2ccc(Nc3ncc(F)c(-c4cc(F)c5nc(C)n(C(C)C)c5c4)n3)nc2)CC1 + C=CC(=O)N1CCN(c2nc(OCC3CCCN3C)nc3c2CCN(c2cccc4cccc(C)c24)C3)CC1CC#N | < 0.00316 | < 0.00316 | < 0.00316 | < 0.00316 | < 0.00316 | 23.5 | 25.4 | 26.3 | 26.9 | 18.9 | 20.8 | 18.1 | 23.5 | 19.1 | 20.2 | 21.1 | 21.6 | 20.1 | 18.4 | 19.4 | viability, T/C (second compound 0.0316 µM, first compound 0.00316 µM): 24.3%; viability, T/C [31]: 25.6%; viability, T/C (second compound 0.1 µM, first compound 0.00316 µM): 20.9%; viability, T/C [32]: 21.3%; viability, T/C (second compound 0.316 µM, first compound 0.00316 µM): 21%; viability, T/C [33]: 21.2%; viability, T/C (second compound 1 µM, first compound 0.00316 µM): 21.3%; viability, T/C [34]: 21.4%; viability, T/C [22]: 20%; viability, T/C (second compound 3.16 µM, first compound 0.00316 µM): 1.17%; viability, T/C [35]: 1.06%; viability, T/C [25]: 0.49%; viability, T/C [26]: 0.73%; viability, T/C [27]: 0.52%; viability, T/C [28]: 0.18%
CCNC(=O)CC1N=C(c2ccc(Cl)cc2)c2cc(OC)ccc2-n2c(C)nnc21 (stereo not given) + C=CC(=O)N1CCN(c2nc(OCC3CCCN3C)nc3c2CCN(c2cccc4cccc(C)c24)C3)CC1CC#N | < 0.0316 | < 0.0316 | 0.23 | < 0.0316 | < 0.0316 | 31.2 | 33.5 | 24.4 | 20.3 | 27.5 | 26.7 | 22.2 | 16.4 | 49.5 | 66.1 | 47 | 39.8 | 27.3 | 28 | 21.1 | viability, T/C [5]: 16.1%; viability, T/C [6]: 14.9%; viability, T/C [11]: 12.3%; viability, T/C [12]: 15.4%; viability, T/C [17]: 33.6%; viability, T/C [18]: 33.7%; viability, T/C [22]: 16.2%; viability, T/C [23]: 12%; viability, T/C [24]: 10.6%; viability, T/C [25]: 1.15%; viability, T/C [26]: 1.91%; viability, T/C [27]: 0.39%; viability, T/C [28]: 1.58%; viability, T/C [29]: 0.42%; viability, T/C [30]: 0.35%
Cn1nccc1Nc1nccc(-c2cc3c(s2)C(C)(C)N(CCN2CCOCC2)C3=O)n1 + C=CC(=O)N1CCN(c2nc(OCC3CCCN3C)nc3c2CCN(c2cccc4cccc(C)c24)C3)CC1CC#N | < 0.0316 | < 0.0316 | < 0.0316 | < 0.0316 | < 0.0316 | 29.5 | 28.2 | 25.1 | 19.9 | 26.6 | 24.5 | 22.1 | 18.8 | 26.1 | 24.2 | 21.4 | 21.9 | 27.1 | 26.8 | 23 | viability, T/C [5]: 22.3%; viability, T/C [6]: 29.2%; viability, T/C [11]: 20.7%; viability, T/C [12]: 28.4%; viability, T/C [17]: 19.1%; viability, T/C [18]: 29.2%; viability, T/C [22]: 29.2%; viability, T/C [23]: 22.2%; viability, T/C [24]: 34.1%; viability, T/C [25]: 1.07%; viability, T/C [26]: 0.7%; viability, T/C [27]: 1.22%; viability, T/C [28]: 1.67%; viability, T/C [29]: 0.97%; viability, T/C [30]: 0.27%
